From patent US20260285850A1, “SUBSTITUTED OXAZOLIDINONES AND IMIDAZOLINONES AS HERBICIDES” (FMC CORPORATION, priority 2023, published 2026)

Legend:
Format in all cases: in vivo
soybean (Glycine max) [1] = assay: Test A preemergence soil spray, visual injury rating 0-100; conditions: 10 days, 0 = no effect, 100 = complete control
How it was run: (§1)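 Plants in a loam and sand soil blend were treated with each test chemical, in a non-phytotoxic solvent system including surfactant, either sprayed on seeded soil before emergence or applied after emergence at the one- to two-leaf stage. Ten days later in the greenhouse, plants were compared with untreated controls and visually rated from 0 (no effect) to 100 (complete control).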

[2] = tested on: barnyardgrass (Echinochloa crus-galli); assay: as above; conditions: 10 days, 0 = no effect, 100 = complete control
How it was run: as §1

[3] = tested on: green foxtail (Setaria viridis); assay: as above; conditions: 10 days, 0 = no effect, 100 = complete control
How it was run: as §1

[4] = tested on: oat, wild (wild oat, Avena fatua); assay: as above; conditions: 10 days, 0 = no effect, 100 = complete control
How it was run: as §1

[5] = tested on: blackgrass (Alopecurus myosuroides); assay: as above; conditions: 10 days, 0 = no effect, 100 = complete control
How it was run: as §1

[6] = tested on: wheat (Triticum aestivum); assay: as above; conditions: 10 days, 0 = no effect, 100 = complete control
How it was run: as §1

corn (Zea mays) [7] = assay: as above; conditions: 10 days, 0 = no effect, 100 = complete control
How it was run: as §1

[8] = tested on: ryegrass, Italian (italian ryegrass, Lolium multiflorum); assay: as above; conditions: 10 days, 0 = no effect, 100 = complete control
How it was run: as §1

[9] = tested on: ragweed (common ragweed, Ambrosia artemisiifolia); assay: as above; conditions: 10 days, 0 = no effect, 100 = complete control
How it was run: as §1

kochia (Bassia scoparia) [10] = assay: as above; conditions: 10 days, 0 = no effect, 100 = complete control
How it was run: as §1

[11] = tested on: palmer (palmer amaranth, palmer pigweed, Amaranthus palmeri); assay: as above; conditions: 10 days, 0 = no effect, 100 = complete control
How it was run: as §1

[12] = tested on: horseweed (Erigeron canadensis); assay: Test A postemergence application, visual injury rating 0-100; conditions: 10 days
How it was run: as §1

soybean (Glycine max) [13] = assay: as above; conditions: 10 days
How it was run: as §1

[14] = tested on: barnyardgrass (Echinochloa crus-galli); assay: as above; conditions: 10 days
How it was run: as §1

[15] = tested on: green foxtail (Setaria viridis); assay: as above; conditions: 10 days
How it was run: as §1

[16] = tested on: oat, wild (wild oat, Avena fatua); assay: as above; conditions: 10 days
How it was run: as §1

[17] = tested on: blackgrass (Alopecurus myosuroides); assay: as above; conditions: 10 days
How it was run: as §1

[18] = tested on: wheat (Triticum aestivum); assay: as above; conditions: 10 days
How it was run: as §1

corn (Zea mays) [19] = assay: as above; conditions: 10 days
How it was run: as §1

[20] = tested on: ryegrass, Italian (italian ryegrass, Lolium multiflorum); assay: as above; conditions: 10 days
How it was run: as §1

[21] = tested on: ragweed (common ragweed, Ambrosia artemisiifolia); assay: as above; conditions: 10 days
How it was run: as §1

kochia (Bassia scoparia) [22] = assay: as above; conditions: 10 days
How it was run: as §1

[23] = tested on: palmer (palmer amaranth, palmer pigweed, Amaranthus palmeri); assay: as above; conditions: 10 days
How it was run: as §1

[24] = tested on: galium (catchweed bedstraw, Galium aparine); assay: as above; conditions: 10 days
How it was run: as §1

[25] = tested on: sedge, umbrella (small-flower umbrella sedge, Cyperus difformis); assay: Test B flooded paddy test, visual plant response rating 0-100; conditions: 250 g ai/ha, Flood, applied to paddy water, evaluated after 13 days
How it was run: (§2)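 Treatment occurs at the 2-leaf stage by adding compound to floodwater standing 3 cm above the soil, a level kept for the whole test. Plants stay in the greenhouse 13 days before visual comparison with controls.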

[26] = tested on: ducksalad (Heteranthera limosa); assay: as above; conditions: 250 g ai/ha, Flood, applied to paddy water, evaluated after 13 days
How it was run: as §2

rice (Oryza sativa) = assay: as above; conditions: 250 g ai/ha, Flood, applied to paddy water, evaluated after 13 days
How it was run: as §2

[27] = tested on: barnyardgrass (Echinochloa crusgalli); assay: as above; conditions: 250 g ai/ha, Flood, applied to paddy water, evaluated after 13 days
How it was run: as §2

[28] = 31 g ai/ha, postemergence, 0 = no effect, 100 = complete control
[29] = Postemergence, 125 g ai/ha, 0 is no effect, 100 is complete control

## COC(=O)C1=CCC(NC(=O)C2(C)CN(c3cc(F)cc(F)c3)C(=O)O2)C1 (stereo not shown) [Compound 21]
Soybean (Glycine max) [1]; 31 g ai/ha
  Soybean plant response rating (0-100): 50
Soybean (Glycine max) [1]; 125 g ai/ha
  Soybean plant response rating (0 to 100 scale): 80
[2]; 31 g ai/ha
  Barnyardgrass plant response rating (0-100): 50
[2]; 125 g ai/ha
  Barnyardgrass plant response rating (0 to 100 scale): 100
[3]; 31 g ai/ha
  Foxtail, Green plant response rating (0-100): 90
[3]; 125 g ai/ha
  Foxtail, Green plant response rating (0 to 100 scale): 100
[4]; 31 g ai/ha
  Oat, Wild plant response rating (0-100): 60
[4]; 125 g ai/ha
  Oat, Wild plant response rating (0 to 100 scale): 80
[5]; 31 g ai/ha
  Blackgrass plant response rating (0-100): 0
[5]; 125 g ai/ha
  Blackgrass plant response rating (0 to 100 scale): 90
[6]; 31 g ai/ha
  Wheat plant response rating (0-100): 80
[6]; 125 g ai/ha
  Wheat plant response rating (0 to 100 scale): 90
Corn (Zea mays) [7]; 31 g ai/ha
  Corn plant response rating (0-100): 60
Corn (Zea mays) [7]; 125 g ai/ha
  Corn plant response rating (0 to 100 scale): 90
[8]; 31 g ai/ha
  Ryegrass, Italian plant response rating (0-100): 50
[8]; 125 g ai/ha
  Ryegrass, Italian plant response rating (0 to 100 scale): 90
[9]; 31 g ai/ha
  Ragweed plant response rating (0-100): 30
[9]; 125 g ai/ha
  Ragweed plant response rating (0 to 100 scale): 30
Kochia (Bassia scoparia) [10]; 31 g ai/ha
  Kochia plant response rating (0-100): 0
Kochia (Bassia scoparia) [10]; 125 g ai/ha
  Kochia plant response rating (0 to 100 scale): 90
[11]; 31 g ai/ha
  Amaranth, Palmer plant response rating (0-100): 40
[11]; 125 g ai/ha
  Amaranth, Palmer plant response rating (0 to 100 scale): 100
[12]; [28]
  Horseweed plant response rating (0-100): 20
[12]; [29]
  Horseweed plant response rating (0 to 100 scale): 70
Soybean (Glycine max) [13]; [28]
  Soybean plant response rating (0-100): 80
Soybean (Glycine max) [13]; [29]
  Soybean plant response rating (0 to 100 scale): 90
[14]; [28]
  Barnyardgrass plant response rating (0-100): 100
[14]; [29]
  Barnyardgrass plant response rating (0 to 100 scale): 100
[15]; [28]
  Foxtail, Green plant response rating (0-100): 90
[15]; [29]
  Foxtail, Green plant response rating (0 to 100 scale): 90
[16]; [28]
  Oat, Wild plant response rating (0-100): 90
[16]; [29]
  Oat, Wild plant response rating (0 to 100 scale): 100
[17]; [28]
  Blackgrass plant response rating (0-100): 90
[17]; [29]
  Blackgrass plant response rating (0 to 100 scale): 100
[18]; [28]
  Wheat plant response rating (0-100): 90
[18]; [29]
  Wheat plant response rating (0 to 100 scale): 90
Corn (Zea mays) [19]; [28]
  Corn plant response rating (0-100): 100
Corn (Zea mays) [19]; [29]
  Corn plant response rating (0 to 100 scale): 100
[20]; [28]
  Ryegrass, Italian plant response rating (0-100): 90
[20]; [29]
  Ryegrass, Italian plant response rating (0 to 100 scale): 40
[21]; [28]
  Ragweed plant response rating (0-100): 40
[21]; [29]
  Ragweed plant response rating (0 to 100 scale): 70
Kochia (Bassia scoparia) [22]; [28]
  Kochia plant response rating (0-100): 80
Kochia (Bassia scoparia) [22]; [29]
  Kochia plant response rating (0 to 100 scale): 80
[23]; [28]
  Amaranth, Palmer plant response rating (0-100): 60
[23]; [29]
  Amaranth, Palmer / Pigweed, Palmer plant response rating (0 to 100 scale): 90
[24]; [28]
  Galium plant response rating (0-100): 80
[24]; [29]
  Galium plant response rating (0 to 100 scale): 80
[25]
  Plant response rating, Sedge, Umbrella (0 to 100 scale, 0 is no effect and 100 is complete control): 95
[26]
  Plant response rating, Ducksalad (0 to 100 scale, 0 is no effect and 100 is complete control): 90
Rice (Oryza sativa)
  Plant response rating, Rice (0 to 100 scale, 0 is no effect and 100 is complete control): 90
[27]
  Plant response rating, Barnyardgrass (0 to 100 scale, 0 is no effect and 100 is complete control): 90
